System: ET-A and/or ET-B receptor
Assay: contraction of human aortic rings in organ culture (agonist assay)
Conditions: increasing concentrations 0.01 nM to 100 nM, at top concentration, 37° C.
Experimental: Endothelin-1 is a peptide which signals through the ET-A and/or ET-B receptor to cause vasoconstriction. To determine whether compounds of the invention are agonists at ET-A and/or ET-B, rings of human aorta (obtained from transplant donor hearts) can be put into organ culture. Rings are then exposed either to increasing concentrations of Endothelin-1 (from 0.01 nM to 100 nM), or to increasing concentrations of the test compound(s) (from about 0.1 nM to about 10 mM) at 37° C., raising the concentration of the appropriate agent approximately every 5 minutes. Throughout the experiment the contraction of the aortic ring is measured by a strain gauge designed and commercially available for such a purpose. […] If the compound of the invention is an agonist at the endothelin receptors, then the force exerted on the strain guage will also be higher (at least at certain concentrations) than prior to addition of the test compound.

## Endothelin-1
  force exerted on the strain gauge versus prior to addition: significantly higher
